Legend:
[1] = tested on: GSPT1 and eRF1; assay: Immunoblotting of GSPT1 and eRF1 in 293FT HEK cells; assay type: cell-based, human; conditions: CRBN−/− cells with CRBNiso2 or CRBNiso2 W385A mutant
Method: (§1) CRBN+/+(293FT parental) cells were treated in parallel with CRBN−/− (CRISPR) cells, CRBN−/− cells expressing CRBN isoform 2, and CRBN−/− cells expressing CRBN isoform 2 with a W385A mutation.

[2] = biological target: T1, GSPT1 and eRF1 (Homo sapiens, UniProt P15170+); assay: as above; assay type: cell-based
T1 construct: endogenous in cells; host or cells: 293FT HEK cells
Method: as §1

[3] = tested on: normal peripheral blood mononuclear cell (PBMC); assay: Response of normal PBMC: GSPT1, ATF3, DDIT3 and apoptosis indicators; assay type: cell-based; conditions: 20 hours
Method: The response of PBMC to Compound C treatment was monitored by measuring the expression of GSPT1, ATF3, DDIT3, and downstream apoptosis indicators in PBMC. PBMCs were treated with 1 nM, 10 nM, 100 nM, or 1000 nM of Compound C for 20 hours. […] Thus, GSPT1, ATF3, DDIT3, cleaved Caspase-3, and cleaved PARP can serve as biomarkers predicting the toxicity of Compound C.

[4] = biological target: T2, mouse CRBN isoform 2 (IKZF1/3, GSPT1/2 as substrates) (Mus musculus, UniProt Q8C7D2, V380E); assay: Substrate degradation in CRBN−/− cells expressing mouse CRBN isoform 2 or mutants; assay type: cell-based; conditions: mouse CRBN isoform 2 V380E; 1 μM Compound C
T2 construct: expressed in transfected cells; host or cells: CRBN-/- cells (elsewhere: 293FT, CRISPR)
Description: (§2) To test this hypothesis, specific mutations in the compound-binding domain of mouse CRBN isoform2 were generated, such as V380E and I391V. Wild type mouse CRBN isoform 2 or each mutant was introduced to CRBN−/− cells. […] Thus, in mouse CRBN isoform 2, V380E and I391V mutations are sufficient to trigger the degradation of IKZF1/3 and GSPT1/2, respectively.

[5] = biological target: T3, mouse CRBN isoform 2 (IKZF1/3, GSPT1/2 as substrates) (Mus musculus, UniProt Q8C7D2, I391V); assay: as above; assay type: cell-based; conditions: mouse CRBN isoform 2 I391V; 10 μM lenalidomide or 1 μM Compound C
T3 construct: expressed in transfected cells; host or cells: CRBN-/- cells (elsewhere: 293FT, CRISPR)
Description: as §2

[6] = tested on: GSPT1, BIP, ER stress or apoptosis pathways; assay: Expression level of ER stress and apoptosis components in 293FT HEK cells; assay type: cell-based, human; conditions: 20 hours
Method: CRBN+/+ and CRBN−/− cells were treated with DMSO alone, 1 nM, or 10 nM Compound C. After 20 hours, the expression level of various cellular components along the endoplasmic reticulum (ER) stress or apoptosis pathways was measured. […] BIP is an ER luminal KDEL protein that requires binding with KDEL receptor in the cis-Golgi to be retro-transported into the ER lumen for retention. Loss of GSPT1 leads to the inactivation of the eRF1/GSPT1 complex and therefore allows translation readthrough of de novo sysnthesized proteins such as BIP. Addition of extra residues to the BIP C-terminus blocks the recognization of KDEL motif and BIP C-terminal epitopes by the KDEL receptor and BIP C-terminal antibodies, respectively. […] BIP interacts with the ER luminal domain of UPR sensors PERK, IRE1, and ATF6 to prevent their activation. Reduction of BIP C-terminal immunoreactivity indicates a mislocalization of BIP, which presumably leads to its dissociation from PERK, IRE1, and ATF6 and induces UPR.

[7] = tested on: GSPT1, UPR or apoptosis pathways; assay: Protein level of UPR and apoptosis components in KG1 cells; assay type: cell-based, human
Method: Cells were treated with DMSO alone or 20 nM Compound C. The expression levels of various cellular components along UPR or apoptosis pathways were measured at various time points post treatment.

[8] = biological target: T4, human CRBN isoform 2 (IKZF1/3, GSPT1/2 as substrates) (Homo sapiens, UniProt Q96SW2, V388I); assay: Substrate degradation in CRBN−/− cells expressing human CRBN isoform 2 or mutants; assay type: cell-based; conditions: hCRBNiso2 V387I; 1 μM Compound C
T4 construct: expressed in transfected cells; host or cells: CRBN-/- cells (elsewhere: 293FT, CRISPR)
Description: (§3) They were co-expressed together with GFP in CRBN −/− cells. These cells also expressed human CRBN isoform 2, or various specific mutants (hCRBNiso2 E376V, hCRBNiso2 V387I, or hCRBNiso2 W385A) by transfection with corresponding DNA.

[9] = tested on: human CRBN isoform 2 (IKZF1/3, GSPT1/2 as substrates); assay: as above; assay type: cell-based; conditions: CRBN−/− cells without human CRBN; 10 μM lenalidomide or 1 μM Compound C
Description: as §3

[10] = biological target: T5, human CRBN isoform 2 (IKZF1/3, GSPT1/2 as substrates) (Homo sapiens, UniProt Q96SW2); assay: as above; assay type: cell-based; conditions: cells expressing human CRBN isoform 2
T5 construct: expressed in transfected cells; host or cells: CRBN-/- cells (elsewhere: 293FT, CRISPR)
Description: as §3

[11] = biological target: T6, human CRBN isoform 2 (IKZF1/3, GSPT1/2 as substrates) (Homo sapiens, UniProt Q96SW2, E377V); assay: as above; assay type: cell-based; conditions: hCRBNiso2 E376V; 1 μM Compound C
T6 construct: expressed in transfected cells; host or cells: CRBN-/- cells (elsewhere: 293FT, CRISPR)
Description: as §3

[12] = tested on: DF15; assay: CellTiter-Glo cell viability assay after GSPT1 knockdown, DF15; assay type: cell-based, human; conditions: DF15 expressing shGSPT1-1 or shGSPT1-3 vs parental or control shRNA, 0.01 nM to 0.1 μM, day 9
Method: The effect of depletion of GSPT1 on the anti-proliferative effect of Compound C was determined in human multiple myeloma (MM) cell lines DF15 and RPMI-8226. Treatment compounds were titrated from 0.01 nM to 0.1 μM. Cell proliferation was measured by the CellTiter-Glo cell viability assay (RLU-Relative Luminescent Unit) at day 9 after GSPT1 knockdown by shGSPT1-1 or shGSPT1-3.

[13] = tested on: Molm13; assay: CellTiter-Glo cell viability assay, Molm13; assay type: cell-based, human; conditions: 48 hours
Method: The effect of overexpression of GSPT1 on the anti-proliferative effect of Compound C was determined in human histiocytic lymphoma cell line U937 and human leukemia cell line Molm13. Treatment compounds were titrated from 0.1 nM to 1 μM. Cell proliferation was measured by CellTiter-Glo cell viability assay at 48 hours after treatment.

[14] = PBMC, 1 nM, 10 nM, 100 nM, or 1000 nM

T5 sequence (Q96SW2 1-441 isoform Q96SW2-2): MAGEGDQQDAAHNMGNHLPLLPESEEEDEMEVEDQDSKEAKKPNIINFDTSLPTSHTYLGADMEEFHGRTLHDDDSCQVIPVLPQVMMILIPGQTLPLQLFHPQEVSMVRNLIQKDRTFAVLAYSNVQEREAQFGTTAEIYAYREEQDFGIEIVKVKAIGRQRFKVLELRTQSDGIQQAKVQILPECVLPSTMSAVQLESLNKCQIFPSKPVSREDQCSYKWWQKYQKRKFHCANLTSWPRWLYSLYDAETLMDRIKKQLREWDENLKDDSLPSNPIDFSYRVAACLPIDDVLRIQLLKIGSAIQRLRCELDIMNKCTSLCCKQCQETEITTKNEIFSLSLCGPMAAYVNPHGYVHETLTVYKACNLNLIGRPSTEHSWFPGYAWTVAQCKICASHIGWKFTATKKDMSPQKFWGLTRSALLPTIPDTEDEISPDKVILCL
T5 sequence (Q16531 whole entry partner, canonical isoform): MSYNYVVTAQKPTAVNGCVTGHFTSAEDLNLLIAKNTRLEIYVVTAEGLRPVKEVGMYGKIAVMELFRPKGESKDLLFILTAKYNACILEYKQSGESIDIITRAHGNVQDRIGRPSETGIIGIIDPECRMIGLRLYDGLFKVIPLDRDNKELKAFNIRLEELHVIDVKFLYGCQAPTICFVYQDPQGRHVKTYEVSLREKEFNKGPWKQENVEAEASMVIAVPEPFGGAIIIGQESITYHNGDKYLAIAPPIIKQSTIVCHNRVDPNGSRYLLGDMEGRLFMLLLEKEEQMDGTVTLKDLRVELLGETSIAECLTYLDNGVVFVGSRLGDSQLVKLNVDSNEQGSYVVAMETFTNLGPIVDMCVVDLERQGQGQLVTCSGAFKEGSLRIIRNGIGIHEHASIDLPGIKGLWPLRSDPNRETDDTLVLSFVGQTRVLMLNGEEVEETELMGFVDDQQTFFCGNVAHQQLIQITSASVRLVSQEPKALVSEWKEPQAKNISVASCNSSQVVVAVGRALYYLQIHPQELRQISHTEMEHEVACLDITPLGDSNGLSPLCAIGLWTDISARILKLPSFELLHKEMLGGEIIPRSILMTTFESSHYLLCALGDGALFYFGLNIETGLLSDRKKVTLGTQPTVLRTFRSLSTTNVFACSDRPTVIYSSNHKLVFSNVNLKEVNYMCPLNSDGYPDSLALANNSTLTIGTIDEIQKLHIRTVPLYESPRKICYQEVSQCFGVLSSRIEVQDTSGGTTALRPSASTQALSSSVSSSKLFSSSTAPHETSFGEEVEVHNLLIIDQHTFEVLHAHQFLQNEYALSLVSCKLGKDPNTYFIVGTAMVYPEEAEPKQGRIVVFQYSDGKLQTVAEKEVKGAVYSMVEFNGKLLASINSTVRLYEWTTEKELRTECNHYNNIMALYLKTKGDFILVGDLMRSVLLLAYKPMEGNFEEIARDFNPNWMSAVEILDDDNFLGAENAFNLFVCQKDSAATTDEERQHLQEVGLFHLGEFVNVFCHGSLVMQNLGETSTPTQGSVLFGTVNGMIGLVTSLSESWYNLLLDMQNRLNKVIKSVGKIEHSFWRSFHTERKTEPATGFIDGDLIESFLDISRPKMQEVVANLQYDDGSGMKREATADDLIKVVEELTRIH
T3 sequence (Q8C7D2 whole entry I391V, canonical isoform): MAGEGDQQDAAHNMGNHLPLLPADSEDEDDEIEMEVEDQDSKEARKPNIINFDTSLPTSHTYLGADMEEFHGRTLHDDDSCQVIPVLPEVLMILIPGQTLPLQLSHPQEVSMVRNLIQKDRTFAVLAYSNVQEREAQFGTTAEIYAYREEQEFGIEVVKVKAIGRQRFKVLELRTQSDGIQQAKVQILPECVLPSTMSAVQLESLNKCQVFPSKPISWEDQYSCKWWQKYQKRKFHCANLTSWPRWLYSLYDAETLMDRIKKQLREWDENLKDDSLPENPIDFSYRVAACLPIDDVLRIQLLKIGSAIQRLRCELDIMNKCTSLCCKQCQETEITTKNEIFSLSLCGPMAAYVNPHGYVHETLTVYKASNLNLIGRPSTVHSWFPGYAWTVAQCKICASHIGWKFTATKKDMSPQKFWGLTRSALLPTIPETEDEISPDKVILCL
T4 sequence (Q96SW2 1-441 isoform Q96SW2-2 V387I): as the sequence (Q96SW2 1-441 isoform Q96SW2-2) above, with V387I counted along it
T4 sequence (Q16531 whole entry partner, canonical isoform): as the sequence (Q16531 whole entry partner, canonical isoform) above
T6 sequence (Q96SW2 1-441 isoform Q96SW2-2 E376V): as the sequence (Q96SW2 1-441 isoform Q96SW2-2) above, with E376V counted along it
T6 sequence (Q16531 whole entry partner, canonical isoform): as the sequence (Q16531 whole entry partner, canonical isoform) above
T2 sequence (Q8C7D2 whole entry V380E, canonical isoform): as the sequence (Q8C7D2 whole entry I391V, canonical isoform) above, with V380E, V391I counted along it

Cc1ccc(NC(=O)NCc2ccc3c(c2)CN(C2CCC(=O)NC2=O)C3=O)cc1Cl (stereo not drawn) [Compound C, 1-(3-chloro-4-methylphenyl)-3-((2-(2,6-dioxopiperidin-3-yl)-1-oxoisoindolin-5-yl)methyl)urea]
Degradation of GSPT1 and eRF1 [1]: restores Compound C-induced degradation of GSPT1 and eRF1 | Degradation of GSPT1 and eRF1 ([2]; CRBN+/+ (293FT parental) cells): induces degradation of GSPT1 and eRF1 in CRBN+/+ cells | Degradation of GSPT1 and eRF1 ([2]; CRBN+/+ cells with overexpression of GSPT1): reduces this degradation effect | Cleaved Caspase-3 [3, 14]: increasing cleaved Caspase-3 | Expression of GSPT1 [3, 14]: decreases the expression of GSPT1 | Level of p-EIF2α, ATF3 and DDIT3 [3, 14]: increases the level | Apoptosis ([3]; normal PBMC): induces apoptosis | Degradation of GSPT1/2 [4]: restores Compound C-induced degradation of GSPT1/2 | Degradation of IKZF1/3 [5]: restores both lenalidomide- and Compound C-induced degradation of IKZF1/3 | Degradation of GSPT1 ([6]; 293FT CRBN+/+ cells, 1 nM or 10 nM): induces degradation of GSPT1 in CRBN+/+ cells | Cellular components in acute apoptotic cell death ([6]; 293FT HEK cells): are not affected | Immunoreactivity of BIP antibody that binds to BIP amino-terminal region ([6]; 293FT, 1 nM or 10 nM): is not affected | Immunoreactivity of KDEL antibody and BIP carboxyl-terminus (BIP-CT) antibody ([6]; 293FT, 1 nM or 10 nM, dose dependent): dramatically decreased | Levels of Mcl-1 and pS112-BAD ([7]; KG1 (FIG. 18B)): decrease in response to Compound C treatment | Levels of cleaved Caspase-8, BID, cleaved Caspase-9, cleaved Caspase-3, cleaved Caspase-7, and cleaved PARP ([7]; KG1 (FIG. 18B)): increase in response to Compound C treatment | Degradation of GSPT1 ([7]; KG1, 20 nM): induced degradation of GSPT1 | Expression of ATF-4 and ATF-3 ([7]; KG1, 20 nM): increased the expression of ATF-4 and its downstream target ATF-3 | Levels of pEIF2α, DDIT3, cleaved Caspase-3, and cleaved PARP ([7]; KG1, 20 nM): also increased | Degradation of IKZF1/3 [8]: abolishes Compound C-induced degradation of IKZF1/3 | Degradation of tested substrates (IKZF1/3, GSPT1/2) [9]: neither compound triggers degradation of any tested substrate | Destruction of GSPT1/2 ([10]; 1 μM Compound C): induces destruction of IKZF1/3 and GSPT1/2 | Destruction of IKZF1/3 ([10]; 10 μM lenalidomide or 1 μM Compound C): induces destruction of IKZF1/3 and GSPT1/2 | Degradation of GSPT1/2 [11]: abolishes Compound C-induced degradation of GSPT1/2 | Anti-proliferative effect [12]: increased anti-proliferative effect | Anti-proliferative effect ([13]; Molm13, exogenous GSPT1 overproduced via EF1a promoter): the anti-proliferative effect of Compound C reduces | Anti-proliferative effect ([13]; Molm13 CRBN −/− cells): completely abolished | Cell proliferation ([13]; Molm13 parental cells, 0.1 nM to 1 μM): inhibits cell proliferation

— patent US20180267043A1, “USE OF BIOMARKERS FOR PREDICTING CLINICAL SENSITIVITY TO CANCER TREATMENT” (CELGENE CORPORATION, priority 2014, published 2018)
